How the values were obtained:
[1] = Oil stability index (OSI) method, soybean oil; conditions: 500 ppm antioxidant, FIG. 1
[2] = Active oxygen method (AOM), soybean oil; conditions: soybean oil subjected to oxidative stress, 500 ppm antioxidant, FIG. 1

With `CCOc1ccc2c(c1)C(C)=CC(C)(C)N2` [ETX, 6-ethoxy-1,2-dihydro-2,2,4-trimethylquinoline] the OSI induction time [1] was “about 6 hr” and the peroxide values [2] was “about 11 meq”.

From patent publication US20080015217A1, “ANTIOXIDANT COMBINATIONS FOR USE IN RUMINANT FEED RATIONS” (NOVUS INTERNATIONAL, INC., priority 2006, published 2008)
